We go through 39 compounds from ChEMBL document CHEMBL3244320, “2-Acetylpyridine thiosemicarbazones. 1. A new class of potential antimalarial agents” (J Med Chem, 1979).

What all share (assay type): functional
What all share (settings): route subcutaneous

Experiment [1] relates to Plasmodium berghei. In words: Antimalarial activity against Plasmodium berghei KBG 173 infected in ICR/HA Swiss mouse assessed as increase in mean survival time at 40 mg/kg, sc administered 72 hrs post infection.
Experiment [2] relates to Plasmodium berghei. Nature of the experiment: Antimalarial activity against Plasmodium berghei KBG 173 infected in ICR/HA Swiss mouse assessed as increase in mean survival time at 160 mg/kg, sc administered 72 hrs post infection.
Experiment [3] deals with Plasmodium berghei. Nature of the experiment: Antimalarial activity against Plasmodium berghei KBG 173 infected in ICR/HA Swiss mouse assessed as increase in mean survival time at 640 mg/kg, sc administered 72 hrs post infection.

As for `COc1ccc(NC(=S)N/N=C(\C)c2ccccn2)nn1`, the MST in the experiment on Plasmodium berghei [1] was 0.1 days; in the experiment on Plasmodium berghei [2] it was 0.1 days; in the experiment with Plasmodium berghei [3], 0.2 days.
With `C/C(=N\NC(=S)Nc1ccc(O)cc1)c1ccccn1`, the figures for the MST in the experiment with Plasmodium berghei [1], in the experiment with Plasmodium berghei [2] and with Plasmodium berghei [3] were 0.1 days, 0.3 days and 0.6 days, respectively.
Regarding `C/C(=N\NC(=S)NCc1cccnc1)c1ccccn1`, the MST in the experiment on Plasmodium berghei [1] amounted to 0.1 days; in the experiment with Plasmodium berghei [2], 0.3 days; with Plasmodium berghei [3], 0.6 days.
In the case of `C/C(=N\NC(=S)NCc1ccncc1)c1ccccn1`, the MST in the experiment with Plasmodium berghei [1] worked out at 0.3 days; in the experiment with Plasmodium berghei [2], 0.4 days; in the experiment on Plasmodium berghei [3], 0 days.
`C/C(=N\NC(=S)Nc1cccc([N+](=O)[O-])c1)c1ccccn1`: the MST in the experiment on Plasmodium berghei [1] is 0.1 days; in the experiment on Plasmodium berghei [2], -0.3 days; in the experiment with Plasmodium berghei [3], -0.1 days.
For the compound `C/C(=N\NC(=S)Nc1ccc(Cl)c(Cl)c1)c1ccccn1`, the MST in the experiment with Plasmodium berghei [1], in the experiment on Plasmodium berghei [2] and with Plasmodium berghei [3] was 0.5 days each time.
In the case of `C/C(=N\NC(=S)NCc1ccc(Cl)c(Cl)c1)c1ccccn1`, the MST amounted to 0.1 days with Plasmodium berghei [1], 0.5 days with Plasmodium berghei [2] and 0.1 days with Plasmodium berghei [3].
For the compound `C/C(=N\NC(=S)Nc1cc(Cl)c(Cl)cc1Cl)c1ccccn1`, the MST in the experiment with Plasmodium berghei [1] was -0.3 days; with Plasmodium berghei [2] it was 0.1 days; in the experiment on Plasmodium berghei [3], -0.1 days.
In the same order, the values of `C/C(=N\NC(=S)NCc1ccccn1)c1ccccn1` are 0.1 days, 0.3 days and 0.9 days.
As to `CCOC(=O)CNC(=S)N/N=C(\CC)c1ccccn1`, the MST in the experiment with Plasmodium berghei [1] worked out at 0.3 days; in the experiment with Plasmodium berghei [2], 0.3 days; in the experiment with Plasmodium berghei [3], 0.5 days.
For `COc1cc(NC(=S)N/N=C(\C)c2ccccn2)c2nccc(C)c2c1`, the MST in the experiment with Plasmodium berghei [1] worked out at 0.1 days; in the experiment with Plasmodium berghei [2] it was 0.1 days; in the experiment with Plasmodium berghei [3], 0.3 days.
Turning to `C/C(=N\NC(=S)Nc1c(Cl)cccc1Cl)c1ccccn1`, the MST with Plasmodium berghei [1] is 0.1 days; with Plasmodium berghei [2], 0.9 days; with Plasmodium berghei [3], 0.1 days.
Take `C/C(=N\NC(=S)NCc1ccc(Cl)cc1Cl)c1ccccn1`: the figures for the MST in the experiment with Plasmodium berghei [1], with Plasmodium berghei [2] and with Plasmodium berghei [3] were 0.4 days, 1 days and 2 days, respectively.
Consider `CCOC(=O)CNC(=S)N/N=C(\C)c1ccccn1`, for which the MST in the experiment with Plasmodium berghei [1] was 0.1 days; in the experiment with Plasmodium berghei [2], 0.1 days; in the experiment with Plasmodium berghei [3], 0.3 days.
Turning to `CC/C(=N\NC(=S)Nc1ccc([N+](=O)[O-])cc1)c1ccccn1`, the MST came out at 0.1 days in the experiment with Plasmodium berghei [1], 0.1 days in the experiment with Plasmodium berghei [2] and 0.3 days in the experiment with Plasmodium berghei [3].
Take `CCOC(=O)c1ccc(NC(=S)N/N=C(\C)c2ccccn2)cc1`: the MST in the experiment on Plasmodium berghei [1] is 0.3 days; in the experiment with Plasmodium berghei [2] it was 0.3 days; in the experiment on Plasmodium berghei [3], 0.6 days.
Take `C/C(=N\NC(=S)Nc1c2ccccc2nc2ccccc12)c1ccccn1`: the MST in the experiment on Plasmodium berghei [1] was found to be 0.3 days; in the experiment with Plasmodium berghei [2], 0.3 days; in the experiment with Plasmodium berghei [3] it was 0.5 days.
As to `C/C(=N\NC(=S)Nc1cc(Cl)cc(Cl)c1)c1ccccn1`, the MST was -0.2 days in the experiment on Plasmodium berghei [1], -0.2 days in the experiment on Plasmodium berghei [2] and 0 days in the experiment with Plasmodium berghei [3].
With `CC/C(=N\NC(=S)Nc1ccc(Cl)cc1)c1ccccn1`, the MST with Plasmodium berghei [1] is 0.3 days; in the experiment on Plasmodium berghei [2], 0.7 days; in the experiment with Plasmodium berghei [3], 1.1 days.
As for `C/C(=N\NC(=S)NCc1cccc(C)c1)c1ccccn1`, the MST came to 0.3 days in the experiment with Plasmodium berghei [1], 0.7 days in the experiment on Plasmodium berghei [2] and 6.5 days in the experiment with Plasmodium berghei [3].
As to `C/C(=N\N=C(/S)NCc1ccccc1)c1ccccn1`, the figures for the MST in the experiment with Plasmodium berghei [1], in the experiment with Plasmodium berghei [2] and in the experiment with Plasmodium berghei [3] were 0.5 days, 3.7 days and 10.6 days, respectively.
Consider `C/C(=N\NC(=S)Nc1ccc(Cl)c(Cl)c1Cl)c1ccccn1`, for which the MST in the experiment with Plasmodium berghei [1] is 0.1 days; in the experiment on Plasmodium berghei [2], 0.1 days; in the experiment with Plasmodium berghei [3] it was -0.3 days.
As for `C/C(=N\NC(=S)Nc1ccccc1Br)c1ccccn1`, the figures for the MST in the experiment with Plasmodium berghei [1], in the experiment with Plasmodium berghei [2] and in the experiment on Plasmodium berghei [3] were 0.1 days, 0.5 days and 0.9 days, respectively.
Take `C/C(=N\NC(=S)Nc1cccc(Br)c1)c1ccccn1`: the figures for the MST in the experiment with Plasmodium berghei [1], with Plasmodium berghei [2] and in the experiment on Plasmodium berghei [3] were 0.1 days, 0.3 days and 0.9 days, respectively.
On to `CC/C(=N\NC(=S)Nc1ccc(Br)cc1)c1ccccn1`, for which the MST turned out to be 0.3 days with Plasmodium berghei [1], 0.3 days in the experiment with Plasmodium berghei [2] and 0.7 days with Plasmodium berghei [3].
With `C/C(=N\NC(=S)Nc1cccnc1)c1ccccn1`, the figures for the MST with Plasmodium berghei [1], in the experiment with Plasmodium berghei [2] and in the experiment on Plasmodium berghei [3] were 0.3 days, 0.5 days and 1.3 days, respectively.
`C/C(=N\NC(=S)Nc1ccc(Br)cc1)c1ccccn1`: the figures for the MST with Plasmodium berghei [1], in the experiment with Plasmodium berghei [2] and in the experiment on Plasmodium berghei [3] were 0.3 days, 0.3 days and 0.5 days, respectively.
Regarding `C/C(=N\NC(=S)N1CC1)c1ccccn1`, the MST in the experiment with Plasmodium berghei [1], in the experiment on Plasmodium berghei [2] and with Plasmodium berghei [3] was 0.1 days in each case.
For the compound `C/C(=N\NC(=S)Nc1ccc(S(=O)(=O)c2ccc(NC(=S)N/N=C(\C)c3ccccn3)cc2)cc1)c1ccccn1`, the MST is 0.1 days in the experiment with Plasmodium berghei [1], 0.1 days in the experiment with Plasmodium berghei [2] and 0.3 days in the experiment on Plasmodium berghei [3].
Regarding `C/C(=N\NC(=S)Nc1ccncc1)c1ccccn1`, the MST in the experiment with Plasmodium berghei [1] turned out to be 0.1 days; in the experiment on Plasmodium berghei [2], 0.3 days; in the experiment with Plasmodium berghei [3], 0.9 days.
Take `CC/C(=N\NC(=S)Nc1cccc(Cl)c1)c1ccccn1`: the MST with Plasmodium berghei [1] is 0.3 days; in the experiment with Plasmodium berghei [2], 0.3 days; in the experiment on Plasmodium berghei [3], 0.5 days.
For `CCOC(=O)c1ccc(NC(=S)N/N=C(\CC)c2ccccn2)cc1`, the MST in the experiment on Plasmodium berghei [1] came to 0.3 days; in the experiment with Plasmodium berghei [2], 0.5 days; with Plasmodium berghei [3], 0.5 days.
For the compound `CCCCc1ccc(NC(=S)N/N=C(\C)c2ccccn2)cc1`, the MST in the experiment with Plasmodium berghei [1] is 0.3 days; in the experiment on Plasmodium berghei [2], 3.9 days; with Plasmodium berghei [3], 9.9 days.
As for `C/C(=N\NC(=S)Nc1cc(Cl)ccc1Cl)c1ccccn1`, the MST with Plasmodium berghei [1] is -0.1 days; in the experiment with Plasmodium berghei [2], 0.1 days; in the experiment on Plasmodium berghei [3], 0.1 days.
Take `C/C(=N\NC(=S)Nc1ccc([N+](=O)[O-])cc1)c1ccccn1`: the MST was found to be 0.1 days in the experiment on Plasmodium berghei [1], 0.1 days in the experiment on Plasmodium berghei [2] and 0.5 days in the experiment with Plasmodium berghei [3].
Turning to `C/C(=N\NC(=S)Nc1cccc(Cl)c1Cl)c1ccccn1`, the results for the MST in the experiment on Plasmodium berghei [1], in the experiment with Plasmodium berghei [2] and in the experiment on Plasmodium berghei [3] were -0.2 days, 0.2 days and 0.6 days, respectively.
As to `C/C(=N\NC(=S)Nc1ccc(Cl)cc1Cl)c1ccccn1`, the MST is -0.1 days in the experiment on Plasmodium berghei [1], 0.3 days in the experiment with Plasmodium berghei [2] and 0.7 days with Plasmodium berghei [3].
In the same order, the values of `C/C(=N\NC(=S)NC(c1ccccc1)(c1ccccc1)c1ccccc1)c1ccccn1` are 0.1 days, 0.1 days and 0.1 days.
Take `COc1ccc(NC(=S)N/N=C(\C)c2ccccn2)cc1`: the MST in the experiment with Plasmodium berghei [1] was 2.1 days; in the experiment on Plasmodium berghei [2] it was 9.7 days; with Plasmodium berghei [3], 1.7 days.
